According to patent US20170042916A1, “ANIMAL TISSUE COLONIZATION AND TREATMENT OF INFECTION” (priority 2014, published 2017):

Assays:
[1] = tested on: mixed bacterial/fungal infectious otitis externa and infectious dermatitis; assay: Example 1: treatment of otitis externa and dermatitis in a Shih Tzu dog; type: in vivo; conditions: oral, four weeks, before treatment with the composition
Source text: Conner's chest, neck, paws, and face were cleaned and treated twice daily with antimicrobial wipes (Douxo Chlorhexiding pads®) and an antimicrobial lotion (ResiKetoChlor®). The ears were cleaned once daily with a tris-EDTA/ketoconazole solution (TrizUltra plus Keto®) and treated twice daily with an amikacin otic preparation.
The animal had generalized mixed hypotrichosis/alopecia, erythema, hyperpigmentation, and lichenification with crusting over dorsal trunk, legs, paws, and ventrum. Hair on the face and neck was severely matted. The skin underlying the mats was crusted, with moist dermatitis and brown purulent exudate. Lymph node enlargement was palpated in the mandibular, prescapular, and popliteal node groups.
A generalized severe Malassezia (yeast) dermatitis was concentrated mostly on ventrum and paws. […] Fine-needle aspirates of peripheral lymph nodes (left prescapular and left popliteal) were consistent with reactive lymphadenopathy.
The otitis externa was treated initially by cleaning the ears with a salicylic acid based ear cleaner (Otoclean®) and instillation of 0.5 ml of the disclosed composition comprising Trihydroxy in each ear. Mats were removed and the dog was bathed and groomed over two days using (Splash plus® shampoo), followed by antimicrobial shampoo (Douxo Chlorhexidine® shampoo), followed by essential fatty acid cream rinse (Hylyt® cream rinse). […]

[2] = Stability in water; type: physicochemical
Source text: 3-(trimethoxysilyl) propyldimethyloctadecyl ammonium chloride (hereinafter also referred to as “Trimethoxy”) 104, is illustrated in FIG. 2 only as a precursor to the Trihydroxy molecule, when hydrolyzed by addition to water, shown in FIG. 1. […] Conventional methods of use of Trimethoxy 104 includes addition of a dilute solution in methanol to water. The EPA label required for Trimethoxy compounds states: “Danger. Corrosive. Causes irreversible eye damage and skin burns. Methanol may cause blindness. May be fatal if inhaled. May be harmful if swallowed or absorbed through the skin.”
The compound must then be used within a short period of time, such as a few hours to at most 12 hours, to treat a surface or fabric to produce a permanent surface coating.

Row | Compound | outcome of earlier conventional therapy [1] | stability in water [2]
1 | OC(Cn1cncn1)(Cn1cncn1)c1ccc(F)cc1F [fluconazole] | failed | –
2 | CCCCCCCCCCCCCCCCCC[N+](C)(C)CCC[Si](O)(O)O.[Cl-] [Trihydroxy, 3-(trihydroxysilyl) propyldimethyloctadecyl ammonium chloride] | – | stable with no other additives in water
3 | CCCCCCCCCCCCCCCCCC[N+](C)(C)CCC[Si](OC)(OC)OC.[Cl-] [Trimethoxy, 3-(trimethoxysilyl) propyldimethyloctadecyl ammonium chloride] | – | unstable in water
4 | amoxicillin/clavulanate | failed | –
